Laboratory results published in US20080171764A1, “METHODS FOR PREVENTING, MANAGING, AND REVERSING DISEASE CAUSED BY INFLAMMATION MEDIATED VASCULAR LESIONS” (priority 2007, published 2008).

Experiments:
[1] = system: apoE−/− mice; experiment: abdominal aortic adventitia lesion / AAA analysis (incidence, severity, diameter); assay type: in vivo
From the text: (§1) ApoE^−/− mice (backcrossed ten times to the C57BL/6 background) were purchased from The Jackson Laboratory. The mice were kept on a twelve-hour light/twelve-hour dark regimen upon arrival. All animal experiments were approved by the IACUC of the Consumer & Personal Product Worldwide, in accordance with AAALAC guidelines. Eight week old, male apoE^−/− mice were fed a normal mouse-chow diet (RP5001; PMI Feeds Inc., St. Louis, Mo.) and acclimated for one week before switching to a pro-atherogenic high fat, high cholesterol, diet (“Western diet”, 21% fat, 0.2% cholesterol, diet No. 88137, Harlan-Teklad, Madison, Wis.) for four weeks.
Upon initiation of the pro-atherogenic diet, Alzet osmotic mini-pumps (Model 2004; ALZA Scientific Products, Mountain View, Calif.) were implanted into the apoE^−/− mice subcutaneously. The mini-pumps were loaded with angII (EMD Biosciences, San Diego, Calif.) at the delivery rate of 1,000 ng/min/kg for twenty-eight days. The mice were anesthetized using isoflurane for the implantation of the mini-pumps. Small incisions in the lower back of the neck were made and the mini-pumps were inserted into the subcutaneous space of the mice. The incisions were then closed using sterile staplers. Triple antibiotic ointment was applied to each incision post surgery. The mice on the high fat, high cholesterol diet were sacrificed by CO2 inhalation twenty-eight days post mini-pump implantation as is explained in detail subsequently. […]
The abdominal aorta was subjected to abdominal aortic adventitia lesion analysis. […] Classification of the adventitia lesions was determined according to the scale based on the gross appearance of the aorta reported by Daugherty et al. Briefly, I: Dilated lumen in the supra-renal region of the aorta with no thrombus; II: Remodeled tissue in the supra-renal region that frequently contains thrombus; III: A pronounced bulbous form of type II that contains thrombus; IV: A form in which there are multiple adventitia lesions containing thrombus, some overlapping, in the suprarenal area of the aorta.

[2] = sirolimus whole blood pharmacokinetics in apoE-/- mice (LC-MS/MS); assay type: in vivo; settings: i.p. daily, 0.5, 1.0 and 4.0 mg/kg
Description: (§2) Upon initiation of the pro-atherogenic diet and osmotic mini-pump implantation, mice were randomly assigned to four groups; namely, vehicle control, rapamycin or sirolimus 0.5 mg/kg, sirolimus 1.0 mg/kg and sirolimus 4.0 mg/kg body weight. The defined amount of sirolimus was dissolved in ethanol, brought up in a vehicle comprising 0.2 percent Sodium carboxymethylcellulose and 0.25 percent tween 80) and administrated to mice (i.p., daily).
Sirolimus was quantitated using liquid-liquid extraction and reverse-phase liquid chromatography mass spectrometry (LC-MS/MS). Briefly, 100 μl of mouse whole blood sample underwent protein precipitation with 5 percent Methanol/Zinc sulfate solution containing the internal standard ascomycin. After centrifugation of the resulting solution, the liquid mixture proceeded with liquid-liquid extraction with 1-chlorobutane. The combined organic extract was then blown down to dryness and reconstituted with 50:50 Methanol:20 mM ammonium acetate solution. The samples were analyzed on API-5000 using C18 reverse-phase chromatography in Multiple Reaction Monitoring (MRM) mode using atmospheric pressure chemical ionization (ApCI) approach. The calibration standard curve results for sirolimus in mouse whole blood were acceptable from 0.5 ng/ml to 10,000 ng/ml with correlation coefficient of 0.998. […]

[3] = plasma lipids (total cholesterol, triglycerides, LDL and HDL cholesterol); assay type: in vivo, mice
From the text: as §1
Upon initiation of the pro-atherogenic diet, Alzet osmotic mini-pumps (Model 2004; ALZA Scientific Products, Mountain View, Calif.) were implanted into the apoE^−/− mice subcutaneously. The mini-pumps were loaded with angII (EMD Biosciences, San Diego, Calif.) at the delivery rate of 1,000 ng/min/kg for twenty-eight days. The mice were anesthetized using isoflurane for the implantation of the mini-pumps. […]
Plasma triglyceride and total cholesterol levels were determined via an automated enzymatic technique (Equal Diagnostic Inc., Exton, Pa.). […] Aliquots of mouse plasma (100 μl) were injected onto the column, separated with a buffer containing 0.15 M NaCl, 0.01 M Na2HPO4, and 0.1 mM EDTA (pH 7.5) at a flow rate of 0.5 mL/min, and analyzed for lipids.

[4] = system: apoE−/− mice; experiment: second study: established lesions, 8 weeks angII infusion and proatherogenic diet, en face analysis; assay type: in vivo; settings: 1.0 mg/kg ip once daily for last 4 of 8 weeks; vehicle 37.6±2.7%, P<0.0001
Description: As stated above, the mice were sacrificed by CO2 inhalation and bled from the abdominal vena cava. The aortas were perfusion-fixed and post-fixed in 4 percent paraformaldehyde. Atherosclerosis quantitation was assessed using two independent methods: “en face” surface lesion analysis and aortic root analysis. The aortic arch and thoracic aorta (defined as above the last inter-costal artery) was subjected to “en face” analysis. Briefly, the aorta with major branches (left common carotid artery, right common carotid artery, left subclavian artery) was opened up. The lipid deposition in the inner aortic wall was stained in Sudan IV buffer. […] The extent of atherosclerosis is expressed as the percent of the aortic surface area covered by lesions. Aortic root analysis provided a second method verifying atherosclerosis quantitation. Briefly, alternate 8-μm frozen sections covering 300 μm of the proximal aorta, starting at the aortic sinus, were stained for atherosclerotic lesions with oil red O. Images of oil red O-stained aortic root sections were captured and analyzed using Image-Pro 6.0 analysis software. All samples were coded by one investigator and analyzed by another investigator who is completely blinded to the codes. […]

[5] = system: apoE−/− mice; experiment: atherosclerosis quantitation, en face surface lesion analysis (Sudan IV), 4-week study; assay type: in vivo; settings: 1.0 mg/kg ip once daily, vehicle 12.9±1.8%, P<0.0005
From the text: ApoE^−/− mice (backcrossed ten times to the C57BL/6 background) were purchased from The Jackson Laboratory. The mice were kept on a twelve-hour light/twelve-hour dark regimen upon arrival. All animal experiments were approved by the IACUC of the Consumer & Personal Product Worldwide, in accordance with AAALAC guidelines. Eight week old, male apoE^−/− mice were fed a normal mouse-chow diet (RP5001; PMI Feeds Inc., St. Louis, Mo.) and acclimated for one week before switching to a pro-atherogenic high fat, high cholesterol, diet (“Western diet”, 21% fat, 0.2% cholesterol, diet No. 88137, Harlan-Teklad, Madison, Wis.) for four weeks. […]
As stated above, the mice were sacrificed by CO2 inhalation and bled from the abdominal vena cava. […] Atherosclerosis quantitation was assessed using two independent methods: “en face” surface lesion analysis and aortic root analysis. […] The extent of atherosclerosis is expressed as the percent of the aortic surface area covered by lesions. Aortic root analysis provided a second method verifying atherosclerosis quantitation. Briefly, alternate 8-μm frozen sections covering 300 μm of the proximal aorta, starting at the aortic sinus, were stained for atherosclerotic lesions with oil red O. Images of oil red O-stained aortic root sections were captured and analyzed using Image-Pro 6.0 analysis software. […]

[6] = system: apoE−/− mice; experiment: health status, body weight and re-suturing incidence post mini-pump surgery; assay type: in vivo
From the text: as §1
Upon initiation of the pro-atherogenic diet, Alzet osmotic mini-pumps (Model 2004; ALZA Scientific Products, Mountain View, Calif.) were implanted into the apoE^−/− mice subcutaneously. The mini-pumps were loaded with angII (EMD Biosciences, San Diego, Calif.) at the delivery rate of 1,000 ng/min/kg for twenty-eight days. The mice were anesthetized using isoflurane for the implantation of the mini-pumps. Small incisions in the lower back of the neck were made and the mini-pumps were inserted into the subcutaneous space of the mice. The incisions were then closed using sterile staplers. Triple antibiotic ointment was applied to each incision post surgery. The mice on the high fat, high cholesterol diet were sacrificed by CO2 inhalation twenty-eight days post mini-pump implantation as is explained in detail subsequently.
as §2
The data is depicted as re-suturing incedince post surgery per group size. A clear increase of the suture index is observed in response to sirolimus administration in a dose dependent manner.

- time of peak whole blood drug level post injection [2]: 1 h
- whole blood drug level at 24 hours ([2]; 24 hours post injection): trace level
- elevation of LDL cholesterol ([3]; all sirolimus treated mice vs vehicle control): > 60%
- plasma triglyceride ([3]; regardless of the dosage employed): trend of elevated triglyceride
Compound: CO[C@H]1C[C@@H]2CC[C@@H](C)[C@@](O)(O2)C(=O)C(=O)N2CCCC[C@H]2C(=O)O[C@H]([C@H](C)C[C@@H]2CC[C@@H](O)[C@H](OC)C2)CC(=O)[C@H](C)/C=C(\C)[C@@H](O)[C@@H](OC)C(=O)[C@H](C)C[C@H](C)/C=C/C=C/C=C/1C [sirolimus]
- incidence of abdominal aortic adventitia lesion ([1]; 1 of 22 mice receiving sirolimus, vehicle control 30 percent (3 of 10)): 4.5%
- severity of AAA as determined by aortic diameter ([1]; vehicle 1.38±0.25 mm, P<0.005): 0.74±0.02 mm
- incidence of AAA ([1]; vehicle 32%, P<0.005): 0%
- atherosclerotic plaque area (en face analysis) of established lesions at 8 weeks [4]: 18.4±2.3%
- atherosclerotic plaque area (en face analysis) at 4 weeks [5]: 3.1±0.4%
- incidence of re-suturing post surgery for mini-pump implantation (wound healing) ([6]; 0.5, 1.0 and 4.0 mg/kg i.p. daily): increased incidence of re-suturing
- body weight ([6]; all 3 sirolimus treated groups vs vehicle control): trend of decreased body weight
- health status ([6]; apoE−/− mice, i.p. daily, 0.5, 1.0 and 4.0 mg/kg, 4 weeks): not overtly affected
